Data reported in US11576897B2, “Therapeutic agent for non-motor symptoms associated with Parkinson's disease” (priority 2017, dated 2023).
Counter-ions that a name gives are not always drawn. Like-named read-outs stand apart in the source and are kept apart here. Marks after values point to notes of the source that are not given here.

What was measured:
[1] = target: human serotonin transporter (SERT) (Homo sapiens (Human), UniProt P31645); assay: Human serotonin transporter (SERT) binding test
[2] = target: serotonin 5-HT2A receptor (Rattus norvegicus (Rat), UniProt P14842); assay: Rat tryptamine-induced forelimb clonic convulsion model; type: in vivo; settings: orally or subcutaneously 60 minutes before tryptamine 25 mg/kg intravenously, SD-male rats
Description: Test 2: Rat Tryptamine-Induced Forelimb Clonic Convulsion Model for Evaluation of In Vivo Serotonin 5-HT2A Receptor Antagonism
Evaluation was conducted in a rodent tryptamine-induced forelimb clonic convulsion model which has been known as one of the methods for assessing the serotonin 5-HT2A receptor antagonism in vivo.
Seven-week-old SD-male rats were used. A dose solution for a test compound was prepared with 0.5% methylcellulose solution or saline for a solvent. A test compound was used in the form of a dose solution obtained by mixing with 0.5% methylcellulose solution to get cloudy (for oral administration) or dissolving in saline (for subcutaneous administration). Tryptamine was used and dissolved in saline as a substance inducing clonic convulsion.
A dose solution of a test compound or a solvent only was administered orally or subcutaneously to rats at the start of the test, and after 60 minutes of the administration, a saline solution containing tryptamine 25 mg/kg was administered intravenously to rats. Rats were transferred to an observation cage right after the administration of tryptamine, and their forelimb clonic convulsion was evaluated for 3 minutes.
The average inhibition ratio of each individual calculated from the following equation was deemed to be the inhibition ratio of each administration group. Inhibition ratio of each individual=(Average score of the solvent-administered group−Score of each individual)/Average score of the solvent-administered group×100
Statistical analysis of the test results was conducted by the following procedures with Stat Preclinica (Takumi Information Technology):
1) Jonckheere-Terpstra test was conducted in the solvent-administered group and test compound-administered group with the forelimb clonic convulsion score as indicator. […] 2) Non-parametric Dunnett's multiple comparison (Joint Ranking)-measured value was conducted between the solvent-administered group and test compound-administered group with the forelimb clonic convulsion score as indicator. […]

human 5-HT2A receptor = human 5-HT2A receptor (Homo sapiens (Human), UniProt P28223); assay: biochemical; type: binding
human D2L receptor = human D2L receptor (Homo sapiens (Human), UniProt P14416); assay: Dopamine D2L receptor binding test
human 5-HT2C receptor = human 5-HT2C receptor (Homo sapiens (Human), UniProt P28335)
[3] = [3H]-citalopram, h-SERT/CHO cell membrane, read-out: h-SERT binding inhibition constant Ki
[4] = [3H]-ketanserin, human 5-HT2A receptor-expressed CHO cell membrane, read-out: 5-HT2A receptor binding inhibition constant Ki
[5] = read-out: 5-HT2A receptor binding inhibition constant Ki

Chain of human 5-HT2C receptor (P28335 whole entry, looked up): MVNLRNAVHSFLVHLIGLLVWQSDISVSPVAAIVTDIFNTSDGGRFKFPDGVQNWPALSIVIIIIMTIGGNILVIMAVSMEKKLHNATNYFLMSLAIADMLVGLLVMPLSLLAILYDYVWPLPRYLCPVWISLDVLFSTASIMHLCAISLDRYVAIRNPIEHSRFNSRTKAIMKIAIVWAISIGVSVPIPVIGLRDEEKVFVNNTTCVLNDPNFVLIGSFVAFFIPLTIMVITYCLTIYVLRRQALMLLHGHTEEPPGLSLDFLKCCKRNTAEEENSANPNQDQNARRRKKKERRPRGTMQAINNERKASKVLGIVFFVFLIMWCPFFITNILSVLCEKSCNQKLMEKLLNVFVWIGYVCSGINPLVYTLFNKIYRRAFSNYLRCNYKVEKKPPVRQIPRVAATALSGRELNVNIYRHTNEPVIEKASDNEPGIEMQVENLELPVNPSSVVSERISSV
Chain of human D2L receptor (P14416 whole entry): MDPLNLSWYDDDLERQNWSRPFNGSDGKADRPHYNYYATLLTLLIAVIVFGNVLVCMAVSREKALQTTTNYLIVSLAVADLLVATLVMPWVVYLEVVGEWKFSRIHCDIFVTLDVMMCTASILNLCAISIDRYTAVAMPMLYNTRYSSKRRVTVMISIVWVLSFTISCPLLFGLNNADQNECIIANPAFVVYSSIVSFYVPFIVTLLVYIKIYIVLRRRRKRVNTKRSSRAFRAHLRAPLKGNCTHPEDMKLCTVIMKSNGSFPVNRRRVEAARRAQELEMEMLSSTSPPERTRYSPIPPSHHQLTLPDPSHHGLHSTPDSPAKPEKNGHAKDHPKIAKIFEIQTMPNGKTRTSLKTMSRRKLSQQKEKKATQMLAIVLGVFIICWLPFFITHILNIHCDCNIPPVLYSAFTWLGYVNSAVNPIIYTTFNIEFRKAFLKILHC

Compound | Ki [1, 3] | Ki (human 5-HT2A receptor; [4]) | other results
CNCc1cc(OCc2cc(F)ccc2F)n(CC2CCCC2)n1.Cl [Example 147, 1-{1-(cyclopentylmethyl)-5-[(2,5-difluorobenzyl)oxy]-1H-pyrazol-3-yl}-N-methylmethanamine] | 0.61 nM | 2.2 nM | Inhibition ratio ([2]; dose 1 mg/kg): 46%; Inhibition ratio ([2]; dose 3 mg/kg): 46%; Inhibition ratio ([2]; dose 10 mg/kg): 71%**
CNCc1cc(OCc2cc(Cl)ccc2F)n(CCC(C)(C)OC)n1 [Example 275, 1-{5-[(5-chloro-2-fluorobenzyl)oxy]-1-(3-methoxy-3-methylbutyl)-1H-pyrazol-3-yl}-N-methylmethanamine] | – | 5.9 nM | IC50 (human D2L receptor): > 1000 nM
CNCc1cc(OCc2ccccc2Cl)n(C(C)C2CCCCC2)n1 (stereo not shown) [Example 296, 1-{5-[(2-chlorobenzyl)oxy]-1-(1-cyclohexylethyl)-1H-pyrazol-3-yl}-N-methylmethanamine] | – | 2.1 nM | Ki [1]: 0.91 nM; Ki (human 5-HT2C receptor): 6.2 nM
CNCc1cc(OCc2ccccc2C)n(C(C)C2CCCCC2)n1 (stereo not shown) [Example 298, 1-{1-(1-cyclohexylethyl)-5-[(2-methylbenzyl)oxy]-1H-pyrazol-3-yl}-N-methylmethanamine] | 0.56 nM | 3.3 nM | –
CNCc1cc(OCc2cccc(C)c2)n(C(C)C2CCCCC2)n1 (stereo not shown) [Example 299, 1-{1-(1-cyclohexylethyl)-5-[(3-methylbenzyl)oxy]-1H-pyrazol-3-yl}-N-methylmethanamine] | 1.4 nM | 5.6 nM | –
CNCc1cc(OCc2ccc(F)cc2F)n(C(C)C2CCCCC2)n1 (stereo not shown) [Example 300, 1-{1-(1-cyclohexylethyl)-5-[(2,4-difluorobenzyl)oxy]-1H-pyrazol-3-yl}-N-methylmethanamine] | 1.8 nM | 0.57 nM | –
CNCc1cc(OCc2ccc(F)cc2Cl)n(C(C)C2CCCCC2)n1 (stereo not shown) [Example 301, 1-{5-[(2-chloro-4-fluorobenzyl)oxy]-1-(1-cyclohexylethyl)-1H-pyrazol-3-yl}-N-methylmethanamine] | 1.3 nM | 0.88 nM | –
CNCc1cc(OCc2ccc(F)cc2C)n(C(C)C2CCCCC2)n1 (stereo not shown) [Example 302, 1-{1-(1-cyclohexylethyl)-5-[(4-fluoro-2-methylbenzyl)oxy]-1H-pyrazol-3-yl}-N-methylmethanamine] | 1.4 nM | 0.94 nM | –
CNCc1cc(OCc2cc(F)ccc2F)n(C(C)C2CCCCC2)n1 (stereo not shown) [Example 303, 1-{1-(1-cyclohexylethyl)-5-[(2,5-difluorobenzyl)oxy]-1H-pyrazol-3-yl}-N-methylmethanamine] | 0.46 nM | 1.8 nM | –
CNCc1cc(OCc2cc(Cl)ccc2F)n(C(C)C2CCCCC2)n1 (stereo not shown) [Example 304, 1-{5-[(5-chloro-2-fluorobenzyl)oxy]-1-(1-cyclohexylethyl)-1H-pyrazol-3-yl}-N-methylmethanamine] | 1.3 nM | – | Ki (human 5-HT2A receptor; [5]): 1.4 nM
CNCc1cc(OCc2cc(C)ccc2F)n(C(C)C2CCCCC2)n1 (stereo not shown) [Example 305, 1-{1-(1-cyclohexylethyl)-5-[(2-fluoro-5-methylbenzyl)oxy]-1H-pyrazol-3-yl}-N-methylmethanamine] | 2 nM | – | Ki (human 5-HT2A receptor; [5]): 2.5 nM
CNCc1cc(OCc2ccccc2)n(CC2(C)CCCCC2)n1 [Example 331, 1-{5-(benzyloxy)-1-[(1-methylcyclohexyl)methyl]-1H-pyrazol-3-yl}-N-methylmethanamine] | 1.3 nM | 2.8 nM | –
CNCc1nn(CC2CCCCC2)c(OCc2cc(F)ccc2F)c1F [Example 351] | 0.98 nM | 15 nM | –
[2H]C([2H])(NC)c1cc(OCc2ccccc2)n(CC2CCCCC2)n1 [Example 492, 1-[5-(Benzyloxy)-1-(cyclohexylmethyl)-1H-pyrazol-3-yl]-N-methyl(^2H2)methanamine] | – | – | Ki [1]: 1.4 nM; Ki (human 5-HT2A receptor): 2.9 nM; Ki (human 5-HT2C receptor): 6.8 nM
[2H]C([2H])([2H])NC([2H])([2H])c1cc(OCc2ccccc2)n(CC2CCCCC2)n1 [Example 493, 1-[5-(Benzyloxy)-1-(cyclohexylmethyl)-1H-pyrazol-3-yl]-N-(^2H3)methyl(^2H2) methanamine] | – | – | Ki [1]: 1.1 nM; Ki (human 5-HT2A receptor): 2.3 nM; Ki (human 5-HT2C receptor): 7.2 nM
[2H]C([2H])([2H])NCc1cc(OCc2ccccc2)n(CC2CCCCC2)n1 [Example 494, 1-[5-(Benzyloxy)-1-(cyclohexylmethyl)-1H-pyrazol-3-yl]-N-(^2H3)methylmethanamine] | – | – | Ki [1]: 1.1 nM; Ki (human 5-HT2A receptor): 3.6 nM; Ki (human 5-HT2C receptor): 7.1 nM
[2H]C([2H])(Oc1cc(CNC)nn1CC1CCCC1)c1cc(F)ccc1F [Example 495, 1-[1-(Cyclopentylmethyl)-5-{[(2,5-difluorophenyl) (^2H2)methyl]oxy}-1H-pyrazol-3-yl]-N-methylmethanamine Hydrochloride] | – | 2 nM | Ki [1]: 0.24 nM; Ki (human 5-HT2C receptor): 2.5 nM
Cl.[2H]C([2H])(Oc1cc(CNC)nn1CC1CCCC1)c1cc(Cl)ccc1F [Example 496, 1-[5-{[(5-Chloro-2-fluorophenyl) (^2H2)methyl]oxy}-1-(cyclopentylmethyl)-1H-pyrazol-3-yl]-N-methylmethanamine Hydrochloride] | – | – | Ki [1]: 2 nM; Ki (human 5-HT2A receptor): 1.7 nM; Ki (human 5-HT2C receptor): 1.1 nM
CNCc1cc(OCc2cc(F)ccc2F)n(CCC(C)(C)C)n1 [Example 500, 1-{5-[(2,5-Difluorobenzyl)oxy]-1-(3,3-dimethylbutyl)-1H-pyrazol-3-yl}-N-methylmethanamine Monophosphate] | – | – | IC50 (human D2L receptor): > 1000 nM
CNCc1cc(OCc2cc(F)ccc2F)n(CC(C)(C)C)n1 [Example 504, 1-{5-[(2,5-Difluorobenzyl)oxy]-1-(2,2-dimethylpropyl)-1H-pyrazol-3-yl}-N-methylmethanamine monophosphate dihydrate] | – | – | IC50 (human D2L receptor): > 1000 nM
CNCc1cc(OCc2cccc(Cl)c2)n(CC2OC3CCC2CC3)n1 (stereo not shown) [Example 508, 1-{5-[(3-chlorobenzyl)oxy]-1-(2-oxabicyclo[2.2.2]oct-3-ylmethyl)-1H-pyrazol-3-yl}-N-methylmethanamine] | 8.1 nM | 9.4 nM | –
